ChEMBL document CHEMBL5154862, “Structure-Based Discovery of MDM2/4 Dual Inhibitors that Exert Antitumor Activities against MDM4-Overexpressing Cancer Cells” (J Med Chem, 2022)
Calls of active or inactive are those of the source. The rule behind the calls is not given here.

How the values were obtained:
[1] = Cmax in ICR mouse at 15 mg/kg, po measured upto 24 hrs by LC-MS/MS analysis; format: ADME, organism-based; parameters: time < 24 hrs, dose 15 mg/kg, route po; settings: in vivo
[2] = Oral bioavailability in ICR mouse at 15 mg/kg measured upto 24 hrs by LC-MS/MS analysis; format: ADME, organism-based; settings: in vivo
U2OS [3] = assay: Upregulation of p21 protein expression in human U2OS cells at 2.5 uM measured after 24 hrs by Western blot analysis; format: functional, cell-based
U2OS [4] = assay: Upregulation of p53 protein expression in human U2OS cells at 2.5 uM measured after 24 hrs by Western blot analysis; format: functional, cell-based
MCF7 [5] = assay: Upregulation of p21 protein expression in human MCF7 cells at 2.5 uM measured after 24 hrs by Western blot analysis; format: functional, cell-based
MCF7 [6] = assay: Upregulation of MDM2 protein expression in human MCF7 cells at 2.5 uM measured after 24 hrs by Western blot analysis; format: functional, cell-based
RKO [7] = assay: Upregulation of MDM2 gene expression in human RKO cells at 0.31 uM incubated for 24 hrs by qPCR analysis; format: functional, cell-based
RKO [8] = assay: Upregulation of p21 gene expression in human RKO cells at 0.31 uM incubated for 24 hrs by qPCR analysis; format: functional, cell-based
NCI-H460 [9] = assay: Upregulation of MDM2 protein expression in human NCI-H460 cells at 2.5 uM measured after 24 hrs by Western blot analysis; format: functional, cell-based
NCI-H460 [10] = assay: Upregulation of p53 protein expression in human NCI-H460 cells at 2.5 uM measured after 24 hrs by Western blot analysis; format: functional, cell-based
NCI-H460 [11] = assay: Upregulation of p21 protein expression in human NCI-H460 cells at 2.5 uM measured after 24 hrs by Western blot analysis; format: functional, cell-based
U2OS [12] = assay: Effect on MDM4 protein expression in human U2OS cells at 2.5 uM measured after 24 hrs by Western blot analysis; format: functional, cell-based
MCF7 [13] = assay: Effect on MDM4 protein expression in human MCF7 cells at 2.5 uM measured after 24 hrs by Western blot analysis; format: functional, cell-based
NCI-H460 [14] = assay: Downregulation of MDM4 protein expression in human NCI-H460 cells at 2.5 uM measured after 24 hrs by Western blot analysis; format: functional, cell-based
RKO [15] = assay: Upregulation of p21 gene expression in human RKO cells incubated for 24 hrs by qPCR analysis; format: functional, cell-based; settings: dose 0.3125-2.5 µM, DDE = dose-dependent effect
[16] = Displacement of 5-FAM labeled PDI peptide from MDM4 C17S mutant (14 to 111 residues) (unknown origin) expressed in Escherichia coli BL21 (DE3) assessed as inhibition constant incubated for 1.5 hrs by fluorescence polarization competition assay; parameters: species or system Homo sapiens
[17] = biological target: E3 ubiquitin-protein ligase Mdm2 (Homo sapiens, UniProt Q00987); assay: Displacement of 5-FAM labeled PDI peptide from MDM2 (1 to 118 residues) (unknown origin) expressed in Escherichia coli BL21 (DE3) assessed as inhibition constant incubated for 1.5 hrs by fluorescence polarization competition assay
[18] = biological target: Cellular tumor antigen p53 (Homo sapiens) (UniProt P04637); assay: Activation of p53 pathway in human HCT-116 cells incubated for 24 hrs by Western blot analysis; format: cell-based; settings: filed as activator, dose 0.078125-2.5 µM, DDE = dose-dependent effect
HCT-116 [19] = assay: Induction of PARP cleavage in human HCT-116 cells incubated for 24 hrs by Western blot analysis; format: functional, cell-based; settings: dose 0.078125-2.5 µM, DDE = dose-dependent effect
[20] = Cytotoxicity against HEK293 cells assessed as cell growth inhibition incubated for 4 days by CCK-8 assay; format: toxicity, cell-based; settings: human
RKO [21] = assay: Upregulation of p21 expression in human RKO cells incubated for 24 hrs by Western blot analysis; format: functional, cell-based; settings: dose 0.3125-2.5 µM, DDE = dose-dependent effect
RKO [22] = assay: Upregulation of MDM2 expression in human RKO cells incubated for 24 hrs by Western blot analysis; format: functional, cell-based; settings: dose 0.3125-2.5 µM, DDE = dose-dependent effect
RKO [23] = assay: Induction of PARP cleavage in human RKO cells at 0.3125 to 2.5 uM incubated for 24 hrs by Western blot analysis; format: functional, cell-based; settings: dose 0.3125-2.5 µM
RKO [24] = assay: Upregulation of MDM2 gene expression in human RKO cells incubated for 24 hrs by qPCR analysis; format: functional, cell-based; settings: dose 0.3125-2.5 µM, DDE = dose-dependent effect
RKO [25] = assay: Upregulation of PUMA gene expression in human RKO cells incubated for 24 hrs by qPCR analysis; format: functional, cell-based; settings: dose 0.3125-2.5 µM, DDE = dose-dependent effect
RKO [26] = assay: Antitumor activity against human RKO cells xenografted in BALB/c mouse assessed as tumor growth inhibition at 100 mg/kg, po bid administered via gavage for 21 consecutive days and measured on day 21 relative to control; format: functional; settings: 504 h, time 21 day, read-out: TGI
RKO [27] = assay: Antitumor activity against human RKO cells xenografted in BALB/c mouse assessed as tumor growth inhibition at 50 mg/kg, po qd administered via gavage for 21 consecutive days and measured on day 21 relative to control; format: functional; settings: 504 h, time 21 day, read-out: TGI
RKO [28] = assay: Induction of apoptosis in human RKO cells assessed as early apoptotic cells at 6.25 uM measured after 48 hrs by Annexin V-FITC/PI staining based flow cytometry analysis (reference value: 3.56 %); format: functional
RKO [29] = assay: Induction of apoptosis in human RKO cells assessed as late apoptotic cells at 6.25 uM measured after 48 hrs by Annexin V-FITC/PI staining based flow cytometry analysis (reference value: 0.82 %); format: functional
RKO [30] = assay: Induction of apoptosis in human RKO cells assessed as necrotic cells at 6.25 uM measured after 48 hrs by Annexin V-FITC/PI staining based flow cytometry analysis (reference value: 2.08 %); format: functional
RKO [31] = assay: Induction of apoptosis in human RKO cells assessed as viable cells at 12.5 uM measured after 48 hrs by Annexin V-FITC/PI staining based flow cytometry analysis (reference value: 93.54 %); format: functional; settings: read-out: Activity
RKO [32] = assay: Induction of apoptosis in human RKO cells assessed as early apoptotic cells at 12.5 uM measured after 48 hrs by Annexin V-FITC/PI staining based flow cytometry analysis (reference value: 3.56 %); format: functional
RKO [33] = assay: Induction of apoptosis in human RKO cells assessed as late apoptotic cells at 12.5 uM measured after 48 hrs by Annexin V-FITC/PI staining based flow cytometry analysis (reference value: 0.82 %); format: functional
RKO [34] = assay: Induction of apoptosis in human RKO cells assessed as necrotic cells at 12.5 uM measured after 48 hrs by Annexin V-FITC/PI staining based flow cytometry analysis (reference value: 2.08 %); format: functional
RKO [35] = assay: Induction of apoptosis in human RKO cells assessed as viable cells at 25 uM measured after 48 hrs by Annexin V-FITC/PI staining based flow cytometry analysis (reference value: 93.54 %); format: functional; settings: read-out: Activity
RKO [36] = assay: Induction of apoptosis in human RKO cells assessed as early apoptotic cells at 25 uM measured after 48 hrs by Annexin V-FITC/PI staining based flow cytometry analysis (reference value: 3.56 %); format: functional
HCT-116 [37] = assay: cells; settings: Homo sapiens, HCT-116, 96 h
RKO [38] = assay: cells; settings: Homo sapiens, 96 h
HeLa = assay: cells; settings: Homo sapiens, 96 h
SW480 = assay: cells; settings: Homo sapiens, SW480, 96 h

Cellular tumor antigen p53 (Homo sapiens), sequence (P04637 whole entry, looked up): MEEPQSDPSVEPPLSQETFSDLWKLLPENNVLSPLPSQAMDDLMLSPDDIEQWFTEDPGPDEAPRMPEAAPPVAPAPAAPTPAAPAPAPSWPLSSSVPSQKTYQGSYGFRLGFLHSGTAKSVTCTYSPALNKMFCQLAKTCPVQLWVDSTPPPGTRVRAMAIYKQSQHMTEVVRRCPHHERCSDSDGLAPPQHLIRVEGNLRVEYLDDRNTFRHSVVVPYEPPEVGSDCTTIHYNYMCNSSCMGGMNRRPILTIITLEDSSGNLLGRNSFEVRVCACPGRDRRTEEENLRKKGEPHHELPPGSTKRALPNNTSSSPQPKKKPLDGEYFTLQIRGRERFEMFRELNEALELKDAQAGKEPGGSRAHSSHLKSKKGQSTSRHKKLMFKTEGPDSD
E3 ubiquitin-protein ligase Mdm2, sequence (Q00987 whole entry, the tested form may be a part): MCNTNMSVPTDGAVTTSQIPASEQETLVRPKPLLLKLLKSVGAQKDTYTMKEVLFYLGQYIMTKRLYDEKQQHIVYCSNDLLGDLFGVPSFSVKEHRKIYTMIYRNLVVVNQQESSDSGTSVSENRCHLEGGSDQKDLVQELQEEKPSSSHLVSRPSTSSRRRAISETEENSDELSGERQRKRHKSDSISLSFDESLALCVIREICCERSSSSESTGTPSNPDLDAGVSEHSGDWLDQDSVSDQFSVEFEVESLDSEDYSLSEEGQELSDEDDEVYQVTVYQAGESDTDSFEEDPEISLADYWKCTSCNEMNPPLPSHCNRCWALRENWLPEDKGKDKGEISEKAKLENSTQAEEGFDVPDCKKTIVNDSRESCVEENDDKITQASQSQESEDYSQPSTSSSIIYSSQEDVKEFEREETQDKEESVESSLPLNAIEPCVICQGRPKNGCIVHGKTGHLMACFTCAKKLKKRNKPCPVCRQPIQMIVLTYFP

SMILES: COc1cc(C(=O)O)ccc1NC(=O)[C@@H]1N[C@@H](CC(C)(C)C)[C@](CNCc2ccncc2)(c2ccc(Cl)cc2F)[C@H]1c1cccc(Cl)c1F
- Cmax [1]: 1080 ng/mL
- bioavailability [2]: 13.5%
- Activity (U2OS [3]): Active
- Activity (U2OS [4]): Active
- Activity (MCF7 [5]): Active
- Activity (MCF7 [6]): Active
- Activity (RKO [7]): Active
- Activity (RKO [8]): Active
- Activity (NCI-H460 [9]): Active
- Activity (NCI-H460 [10]): Active
- Activity (NCI-H460 [11]): Active
- Activity (U2OS [12]): Active
- Activity (MCF7 [13]): Active
- Activity (NCI-H460 [14]): Active
- Activity (RKO [15]): Dde
- Ki [16]: 643 nM
- Ki [17]: 1.1 nM
- Activity [18]: Dde
- Activity (HCT-116 [19]): Dde
- IC50 at 4 days [20]: 6250 nM
- Activity (RKO [21]): Dde
- Activity (RKO [22]): Dde
- Activity (RKO [23]): Active
- Activity (RKO [24]): Dde
- Activity (RKO [25]): Dde
- inhibition in vivo at 100 mg/kg (RKO [26]): 18%
- inhibition in vivo at 50 mg/kg (RKO [27]): 5%
- Activity (RKO [28]): 6.28%
- Activity (RKO [29]): 3.15%
- Activity (RKO [30]): 16.09%
- viability at 12.5 µM (RKO [31]): 85%
- Activity (RKO [32]): 9.54%
- Activity (RKO [33]): 3.81%
- Activity (RKO [34]): 1.6%
- viability at 25 µM (RKO [35]): 7.52%
- Activity (RKO [36]): 34.16%
- IC50 (HCT-116 [37]): 50.7 nM
- IC50 (RKO [38]): 200 nM
- IC50 (HeLa): 7370 nM
- IC50 (SW480): 2820 nM
